Structures can show the parent of a compound that is named as a salt. Where two headings read alike, the source gives them in different places.
What was measured:
opiate receptors [1] = experiment: Irreversible opiate receptor binding/blocking (general statements)
Method: (§1) In brief, brain membranes were prepared and triplicate samples incubated with [^3 H] labelled ligands and designated drugs for 30 minutes at 25° C., followed by filtration over Whatman GF/B filters. […] Specific binding is defined as the difference in binding in the presence and absence of levallorphan (1 uM). […] Each tissue wash included incubation for 10 min. at 37° C., centrifugation and resuspension. Irreversibility experiments included four washes before binding assays were performed, unless otherwise stated.

growth hormone release = experiment: Growth hormone release in vivo; details: prolactin and growth hormone
prolactin release = experiment: Prolactin release in vivo; details: prolactin and growth hormone
opiate receptors [2] = assay type: binding, rat; details: for Change in Binding (Percent), [^3 H]D-ala^2 -D-leu^5 -enkephalin: compound 2 μM, 30 min 25° C., four washes, ligand 1 nM, mean ± s.e.m. of three experiments
Method: as §1
(§2) To determine which compounds did irreversibly bind to the receptor, membranes were incubated with the various drugs (2 μM) and then the free and reversibly bound drug washed away (Table 2).
(§3) Rat brain membranes were prepared and incubated with the above drugs (2 μM) for 30 min at 25° C. and the tissue was then washed four times as described in the text to remove reversibly bound material. The results represent the means ±s.e.m. of three separate experiments utilizing [^3 H]D-ala^2 -D-leu^5 -enkephal in (1 nM) and [^3 H]dihydromorphine (0.8 nM). […] After 15 min the solution was added to tissue.

Duration of action = assay type: in vivo; details: compared to conventional / currently available opiates
mice [3] = experiment: In vivo actions of naltrexone-oxymorphonazine (tailflick latencies); design: species or system mouse
Method: Groups of mice were injected subcutaneously with the stated drug and latencies in the tailflick test determined and compared to those obtained prior to testing. […] This compares with an analgesic rate of 100% of animals receiving oxymorphone HCl in other control experiments.

opiate receptors [4] = biological target: T1, opiate receptors (Rattus norvegicus, UniProt P33535); experiment: Irreversible inhibition of ^3 H-DHM binding, 100 nM, two washes
T1 construct: Rat brain homogenates were prepared as described; from tissue; host or cells: rat brain homogenate / membranes
Method: (§4) Each wash consisted of centrifugation, incubation at 37° for 10 min and centrifugation again. […] Bindig was then performed with either ^3 H-D-ala^2 -D-leu^5 -enkephalin (DADL) or ^3 H-dihydromorphine (DHM) both at 1 nM. Specific binding was determined as that displaceable by levallorphan at 1000 nM. All values represent the means of triplicate samples ±S.E.M.

opiate receptors [5] = experiment: Irreversible inhibition of ^3 H-DADL binding, 100 nM, two washes; design: species or system rat
Method: as §4

opiate receptors [6] = biological target: T1, opiate receptors; experiment: biochemical; assay type: binding; details: for inhibition at 2 µM: 0.5 h, read-out: Change in Binding (Percent), [^3 H]dihydromorphine
Method: Results are from a single experiment which has been replicated three times.
as §1, §2, §3
After incubating membranes with the specified drug, the membranes were extensively washed and a binding assay with [^3 H]dihydromorphine performed.

[7] = Reaction of hydrazones to azines in solution; details: acidic aqueous solutions; absolute ethanol or water/acetic acid (1%), 15 min
mice [8] = experiment: Oxymorphonazine analgesia in vivo (Tail-Flick Assay); design: species or system mouse; details: 25 μg in 5 μl of artificial CSF; for Analgesia (percent), 20 hr.: groups differ p<0.015, Fisher's Exact Test
Method: Mice were injected with either oxymorphone or oxymorphonazine (both 25 μg in 5 μl of artificial CSF) under Ethrane/oxygen anesthesia and tested for analgesia at the stated time. Analgesia was determined by Tail-Flick Assay. Quantal criteria, the doubling of the baseline latency for each individual animal, was used. At 20 hours, the oxymorphone and oxymorphonazine groups differed from each other at p<0.015 level, as determined by Fisher's Exact Test.

T1 sequence (P33535 whole entry): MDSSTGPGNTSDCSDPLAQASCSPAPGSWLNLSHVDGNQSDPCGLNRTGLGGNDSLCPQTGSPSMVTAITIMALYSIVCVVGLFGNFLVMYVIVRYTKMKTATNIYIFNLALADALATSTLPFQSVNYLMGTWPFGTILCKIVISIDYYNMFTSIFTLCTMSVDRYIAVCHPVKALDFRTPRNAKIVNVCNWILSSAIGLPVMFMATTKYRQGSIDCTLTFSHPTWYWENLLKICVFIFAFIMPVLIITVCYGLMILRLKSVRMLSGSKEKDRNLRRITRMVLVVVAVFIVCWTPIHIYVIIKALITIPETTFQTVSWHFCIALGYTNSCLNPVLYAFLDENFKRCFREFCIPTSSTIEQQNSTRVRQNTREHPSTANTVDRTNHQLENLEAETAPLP

Question: With `CN1CC[C@]23c4c5ccc(O)c4O[C@H]2[C@@H](O)C=C[C@H]3[C@H]1C5` [Morphine, morphine] as the compound, how does the “irreversible inhibition of opiate receptor binding / activity (in words)” value (opiate receptors [1]) read?
Answer: Its value is “show no irreversible inhibition”.

Question: And the “hormone release by morphine (in words)” value (growth hormone release)?
Answer: Its value is “releases both hormones”.

Question: What about the “hormone release by morphine (in words)” value (prolactin release) of the same compound?
Answer: The value was “releases both hormones”.

Question: With `C=CCN1CCC23c4c5ccc(O)c4OC2C(=NN=C2CCC4(O)C6Cc7ccc(O)c8c7C4(CCN6CC=C)C2O8)CCC3(O)C1C5` (stereo not shown) [Naloxonazine, naloxonazine] as the compound, how does the “eliminated [^3 H]D-ala^2 -D-leu^5 -enkephalin binding” value (opiate receptors [2]; 2 uM, 30 min) read?
Answer: The value was “over 90%”.

Question: What about the “Change in Binding (Percent), [^3 H]D-ala^2 -D-leu^5 -enkephalin” value (opiate receptors [2]) of the same compound?
Answer: Its value is -93% ± 4.

Question: And the “dose reproducing the irreversible blockade of opiate receptor binding by naloxazone” value (opiate receptors [1]; low doses)?
Answer: The value was 50 nM.

Question: What about the “duration of action (in words)” value (Duration of action) of the same compound?
Answer: The value was “in the order of days”.

Question: What about the “duration of action (in words)” value (Duration of action; listed as naloxonazine) of the same compound?
Answer: The value was “lasting far longer than conventional opiates”.

Question: Which results are given for `CN1CCC23c4c5ccc(O)c4OC2C(=NN=C2CCC4(O)C6Cc7ccc(O)c8c7C4(CCN6CC4CC4)C2O8)CCC3(O)C1C5` (stereo not shown) [Naltrexone-oxymorphonazine, naltrexone-oxymorphonazine]?
Answer: irreversible inhibition of opiate receptor binding / activity (in words) (opiate receptors [1]): appear to irreversibly bind the opiate receptors; Tailflick Latencies, After 20 min (mice [3]; 10 mg/kg s.c., after 20 min): 2.20 ± 0.35 s; Tailflick Latencies, After 40 min (mice [3]; 10 mg/kg s.c., after 40 min): 2.29 ± 0.31 s; Tailflick Latencies, Prior (mice [3]; baseline prior to 10 mg/kg s.c.): 2.44 ± 0.32 s; animals analgesic (in words) (mice [3]; doubling of baseline latencies, 10 mg/kg s.c.): none of the animals receiving the mixed azine (naltrexone-oxymorphonazine) were analgesic; action in vivo (in words) (mice [3]; in vivo tests of mixed agonist/antagonist compounds): act as antagonists; ^3 H-DHM Binding (opiate receptors [4]; 100 nM, 30 min 25° C., two washes, DHM 1 nM, control 3447 ± 273 cpm, triplicate ± S.E.M.): 1487 ± 120 cpm; inhibition at 0.1 µM (opiate receptors [4]; 0.5 h, read-out: ^3 H-DHM Binding, change): 57%; ^3 H-DADL Binding (opiate receptors [5]; 30 min 25° C., DADL 1 nM, control 1800 ± 53 cpm, triplicate ± S.E.M.): 1205 ± 157 cpm; ^3 H-DADL Binding, change (opiate receptors [5]; vs control, 30 min): -33%

Question: Which “irreversible inhibition of [^3 H]D-ala^2 -D-leu^5 -enkephalin binding (in words)” value (opiate receptors [2]; 2 μM) does the source give for `CN1CCC23c4c5ccc(O)c4OC2C(=NN)CCC3(O)C1C5` (stereo not shown) [Oxymorphazone, oxymorphazone] here?
Answer: Its value is “neither naloxazone nor oxymorphazone irreversibly inhibited the binding”.

Question: And the “Change in Binding (Percent), [^3 H]D-ala^2 -D-leu^5 -enkephalin” value (opiate receptors [2])?
Answer: Its value is 43% ± 24.

Question: What about the “irreversible inhibition of [^3 H]dihydromorphine binding (in words)” value (opiate receptors [6]; 2 μM, various concentrations in b75 (FIG. 2)) of the same compound?
Answer: Its value is “neither naloxazone nor oxymorphazone irreversibly inhibited the binding”.

Question: And the inhibition at 2 µM (opiate receptors [6]; compound 2 μM, 30 min 25° C., four washes, ligand 0.8 nM, mean ± s.e.m. of three experiments)?
Answer: Its inhibition at 2 µM is -3%.

Question: And the “stability in solution: reaction to azine (in words)” value [7]?
Answer: Its value is “no azine formation could be detected”.

Question: Which results are given for `CN1CCC23c4c5ccc(O)c4OC2C(=NN=C2CCC4(O)C6Cc7ccc(O)c8c7C4(CCN6C)C2O8)CCC3(O)C1C5` (stereo not shown) [Oxymorphonazine, oxymorphonazine]?
Answer: Change in Binding (Percent), [^3 H]D-ala^2 -D-leu^5 -enkephalin (opiate receptors [2]): -59 ± 3%; potency of irreversible block of opiate binding in vitro relative to corresponding hydrazone (opiate receptors [1]; azine vs corresponding hydrazone): 20-40 fold; inhibition at 2 µM (opiate receptors [6]): 71 ± 4%; Analgesia (percent), 1 hr. (mice [8]): 100%; Analgesia (percent), 4 hr. (mice [8]): 100%; Analgesia (percent), 10 hr. (mice [8]): 100%; Analgesia (percent), 20 hr. (mice [8]): 44%; duration of action (in words) (Duration of action): lasting far longer than conventional opiates

Question: Which “removal of reversible ligand by washing (in words)” value (opiate receptors [1]; two washes with incubation at 37° for 10 min) does the source give for `CN1CC[C@]23c4c5ccc(O)c4O[C@H]2C(=O)CC[C@@]3(O)[C@H]1C5` [Oxymorphone, oxymorphone] here?
Answer: The value was “effectively removed”.

Question: And the “Analgesia (percent), 1 hr.” value (mice [8])?
Answer: Its value is 100%.

Question: What about the “Analgesia (percent), 4 hr.” value (mice [8]) of the same compound?
Answer: The value was 78%.

Question: What about the “Analgesia (percent), 10 hr.” value (mice [8]) of the same compound?
Answer: Its value is 33%.

Question: And the “Analgesia (percent), 20 hr.” value (mice [8])?
Answer: Its value is 0%.

Question: Which analgesic rate (mice [3]; other control experiments) does the source give for `CN1CC[C@]23c4c5ccc(O)c4O[C@H]2C(=O)CC[C@@]3(O)[C@H]1C5` [oxymorphone HCl] here?
Answer: Its analgesic rate is 100%.

Reference: patent publication US4803208A, “Opiate agonists and antagonists” (Sloan-Kettering Institute For Cancer Research, priority 1985, dated 1989)
